Measured values reported in US10219728B2, “Analyte monitoring: stabilizer for subcutaneous glucose sensor with incorporated antiglycolytic agent” (Abbott Diabetes Care Inc., priority 2005, dated 2019).
Read-outs that look alike come from different tables or passages of the source. One block for each compound: values may come before it.

Columns and labels:
[1] = Antiglycolytic-modified sensor and control sensor implanted side by side in the arm of a non-diabetic subject; type: in vivo; conditions: FREESTYLE NAVIGATOR sensor with overcoat of about 55 micrograms L-glyceraldehyde, versus control sensor
Experimental: A further example of the use of an antiglycolytic sensor is provided by its use in an in vivo environment. In this example, a control sensor (FREESTYLE NAVIGATOR®) is inserted in the arm of a non-diabetic subject, adjacent to a similar sensor, which has been modified by the addition of an antiglycolytic agent, L-glyceraldehyde. A coating solution was made 200 mg/mL in L-glyceraldehyde, and 150 mg/mL in polymer PC-1306 (Biocompatibles, PLC), both dissolved in ethanol. The FREESTYLE NAVIGATOR® sensor was then modified by dipping twice into this coating solution, yielding an overcoat containing about 55 micrograms of L-glyceraldehyde. […] Glucose readings below 60 mg/dL are not anticipated in non-diabetic subjects, and are therefore considered to be anomalous, reflecting either (a) sensor malfunctions, or more likely (b) local inhomogeneities of glucose concentration (in the vicinity of a wound, for example) wherein the glucose concentration deviates substantially from the systemic value. Such deviations are observed with some regularity in control sensors, but are not observed in sensors modified with L-glyceraldehyde.

[2] = test system: blood clot (red blood cells adjacent to the sensor); experiment: Glucose depletion at sensors inserted into blood clots, current response followed over time; type: cell-based; conditions: sensor with approximately 138 micrograms racemic D-/L-glyceraldehyde as thin outer coating, control sensors about 2 hour
Experimental: Glucose sensors are inserted into small silicon tubes containing the appropriate biological fluid. The tubes are maintained at about 37 degrees Celsius, and the glucose sensor is monitored.
Antiglycolytic sensors were prepared by modification of control sensors (FREESTYLE NAVIGATOR®) as follows. A coating solution was prepared from 250 mg/mL of a racemic mixture of L-glyceraldehyde and D-glyceraldehyde, and 150 mg/mL in polymer PC-1306 (Biocompatibles, PLC), the former suspended and the latter dissolved in ethanol. The resulting antiglycolytic sensors had approximately 138 micrograms of the racemic mixture of D- and L-glyceraldehydes incorporated as a thin, outer coating. Both these sensors and control sensors (no antiglycolytic agents added) were then inserted into blood clots, and the current response was followed over time.
The depletion is much delayed (up to about 12 hours) in the glyceraldehydes-containing sensors.

[3] = 50 mg/ml boric acid with 150 mg/ml L-glyceraldehyde and 150 mg/mL PC in outer membrane, stress at 56° C. for nine days, nonheparin blood
Experimental: An example of the use of an antiglycolytic sensor containing borate minerals, boric acid or any precursor thereof, is provided by its testing in an in vitro environment. 50 mg/ml boric acid was mixed with 150 mg/ml L-glyceraldehyde and 150 mg/mL PC in 100% ethanol. The sensor was dipped three times with a 10 minute interval. The sensor was then cured overnight, and subjected to stress at 56° C. for nine days and subsequently tested in nonheparin blood.

SMILES: O=C[C@@H](O)CO [L-glyceraldehyde]
large negative deviation in signal (values well below 60 mg/dL) during the night [1]: not observed

SMILES: O=CC(O)CO (racemic) [glyceraldehydes, racemic mixture of L-glyceraldehyde and D-glyceraldehyde]
glucose depletion period [2]: up to 12 hours

high background current after stress [3]: significantly reduced
high background current after stress ([3]; listed as borate): reduced significantly
SMILES: OB(O)O [boric acid]
